Assay results from patent US12605401B2, “Polymers, compositions and methods for treating hyperuricemia” (WATERSTONE PHARMACEUTICALS (WUHAN) CO., LTD., priority 2021, dated 2026).

Test system: chronic hyperuricemia model rats
Assay: Chronic hyperuricemia model, adenine + ethambutol, 21 days; serum UA, CREA, UREA
Format: in vivo
Description: 48 rats were randomly divided into 6 groups with 8 rats in each group. The groups were as follows: Blank Group (Vehicle, ig), Model Group (Vehicle, ig), Positive control group (Allopurinol, 10 mg/kg, ig), Compound 1 group (Sevelamer carbonate, 250 mg/kg, ig), Compound 2 low-dose group (TAA polymer, 50 mg/kg, ig), Compound 2 high-dose group (TAA polymer, 250 mg/kg, ig). Except for blank group, rats in other groups were modeled according to the chronic modeling method. The modeling method was as follows: rats were given Adenine (100 mg/kg)+Ethambutol (250 mg/kg) by gavage, once a day, for 21 days. Animals in blank group and model group were given equal volume of normal saline by gavage. Animals in positive control group were given positive 10 mg/kg Alloalcohol, once in the first week, once in the second week, once a day for 3 days before sampling in the third week. Animals in other groups were given intragastric administration once a day for 14 consecutive days from the 8th day of modeling. Blood samples were taken at Day 21 after modeling, and serum samples were separated and stored at −80° C. for biochemical detection.
After 21 days of modeling (14 days of drug treatment), blood samples were taken and serum separation was performed to detect three renal functions (UA, CREA and UREA) (See Table 1 and FIGS. 2a, 2b and 2c). Compound 1 is Sevelamer carbonate and Compound 2 is a graft polytriallylamine with 50% molar percentage of the moiety to the tertiary amine in polytriallylamine.

Oc1ncnc2[nH]ncc12 [Allopurinol]
CREA, effect in words (10 mg/kg ig, day 21): significantly reduced | UA, effect in words (10 mg/kg ig, day 21): significantly reduced | UREA, effect in words (10 mg/kg ig, day 21): significantly reduced | CREA and UREA, conclusion in words (protective effect on the kidney) (conclusion over the dose groups): can decrease
